Measurements: PubChem BioAssay AID248 (DTP/NCI, 2004)
Several values for one entry are separate records, joined by “and”; a condition that tells them apart may be missing. Equal entries are not always repeated. Inconclusive results and toxic doses are left out. Cut-off read from the data, not from the text of the source: active = T/C of 150% or more; inactive = T/C below 125%.

System: L1210 leukemia ip in BDF1 mice, survival T/C
Assay: NCI In Vivo Anticancer Drug Screen. Data for tumor model L1210 Leukemia (intraperitoneal) in B6D2F1 (BDF1) mice
Conditions: endpoint: mean survival time, higher = longer survival
Method in brief: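 In this screen, tumor-bearing mice given compound are compared to those given vehicle, and their survival values are reported as a treated-to-control quotient.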

[1] = dose: 100.0 mg/kg/injection, schedule: Q01DX009 (ip), vehicle: saline with Tween-80
[2] = dose: 200.0 mg/kg/injection, schedule: Q01DX009 (ip), vehicle: saline with Tween-80
[3] = dose: 100.0 mg/kg/injection, schedule: Q04DX003 (ip), vehicle: Klucel (hydroxypropylcellulose) (HPC)
[4] = dose: 200.0 mg/kg/injection, schedule: Q04DX003 (ip), vehicle: Klucel (hydroxypropylcellulose) (HPC)
[5] = dose: 400.0 mg/kg/injection, schedule: Q04DX003 (ip), vehicle: Klucel (hydroxypropylcellulose) (HPC)
[6] = dose: 5.0 mg/kg/injection, schedule: Q01DX001 (ip), vehicle: saline
[7] = dose: 10.0 mg/kg/injection, schedule: Q01DX001 (ip), vehicle: saline

Measured: T/C

C=C(c1ccccc1)C(C)C(=O)OCC (stereo not drawn)
inactive: [1] 96 % of control | [2] 101 % of control | dose: 400.0 mg/kg/injection, schedule: Q01DX009 (ip), vehicle: saline with Tween-80 98 % of control

Cn1cnc2c([N+](C)(C)C)ncnc21
inactive: dose: 11.0 mg/kg/injection, schedule: Q04DX003 (ip), vehicle: saline 100 % of control | dose: 22.0 mg/kg/injection, schedule: Q04DX003 (ip), vehicle: saline 104 % of control | dose: 44.0 mg/kg/injection, schedule: Q04DX003 (ip), vehicle: saline 98 % of control | dose: 90.0 mg/kg/injection, schedule: Q04DX003 (ip), vehicle: saline 100 % of control | dose: 100.0 mg/kg/injection, schedule: Q04DX003 (ip), vehicle: saline 95 % of control and 101 % of control | dose: 200.0 mg/kg/injection, schedule: Q04DX003 (ip), vehicle: saline 104 % of control

Brc1ccc(SCN(CSc2ccc(Br)cc2)Cc2ccccc2)cc1
inactive: dose: 100.0 mg/kg/injection, schedule: Q01DX001 (ip), vehicle: saline 93 % of control | dose: 200.0 mg/kg/injection, schedule: Q01DX001 (ip), vehicle: saline 87 % of control | dose: 400.0 mg/kg/injection, schedule: Q01DX001 (ip), vehicle: saline 93 % of control

CCCC(=O)Nc1ccc(O)cc1
inactive: [1] 100 % of control | dose: 100.0 mg/kg/injection, schedule: Q04DX003 (ip), vehicle: saline with Tween-80 96 % of control | [2] 110 % of control | dose: 200.0 mg/kg/injection, schedule: Q04DX003 (ip), vehicle: saline with Tween-80 101 % of control | dose: 266.0 mg/kg/injection, schedule: Q01DX009 (ip), vehicle: saline with Tween-80 109 % of control | dose: 400.0 mg/kg/injection, schedule: Q04DX003 (ip), vehicle: saline with Tween-80 106 % of control

CCOC(=O)C1(O)CSC(O)(C(=O)OCC)CS1 (stereo not drawn)
inactive: dose: 100.0 mg/kg/injection, schedule: Q01DX001 (ip), vehicle: other 101 % of control | dose: 200.0 mg/kg/injection, schedule: Q01DX001 (ip), vehicle: other 97 % of control | dose: 400.0 mg/kg/injection, schedule: Q01DX001 (ip), vehicle: other 92 % of control

CCCCCc1c(C(F)(F)F)[nH]c(=O)[nH]c1=O
inactive: [3] 90 % of control | [4] 101 % of control | [5] 111 % of control

O=[N+]([O-])n1cnnc1-c1ccccc1
inactive: dose: 12.5 mg/kg/injection, schedule: Q04DX003 (ip), vehicle: gum acacia 96 % of control | dose: 25.0 mg/kg/injection, schedule: Q04DX003 (ip), vehicle: gum acacia 102 % of control | dose: 50.0 mg/kg/injection, schedule: Q04DX003 (ip), vehicle: gum acacia 98 % of control

O=NN(CCCl)C(=O)Nc1ncc([N+](=O)[O-])s1
inactive: dose: 8.0 mg/kg/injection, schedule: Q01DX001 (ip), vehicle: other 105 % of control | dose: 16.0 mg/kg/injection, schedule: Q01DX001 (ip), vehicle: other 105 % of control | dose: 31.0 mg/kg/injection, schedule: Q01DX001 (ip), vehicle: other 110 % of control | dose: 62.0 mg/kg/injection, schedule: Q01DX001 (ip), vehicle: other 109 % of control | dose: 125.0 mg/kg/injection, schedule: Q01DX001 (ip), vehicle: other 116 % of control

NC(N)=Nc1ccc(Sc2ccc(N=C(N)N)cc2)cc1
inactive: dose: 75.0 mg/kg/injection, schedule: Q01DX001 (ip), vehicle: carboxymethylcellulose (CMC) 101 % of control | dose: 150.0 mg/kg/injection, schedule: Q01DX001 (ip), vehicle: carboxymethylcellulose (CMC) 98 % of control | dose: 300.0 mg/kg/injection, schedule: Q01DX001 (ip), vehicle: carboxymethylcellulose (CMC) 98 % of control

O=c1oc(-c2ccc(Cl)cc2)nc2cc(Cl)ccc12
inactive: dose: 25.0 mg/kg/injection, schedule: Q01DX009 (ip), vehicle: saline with Tween-80 93 % of control | dose: 50.0 mg/kg/injection, schedule: Q01DX009 (ip), vehicle: saline with Tween-80 97 % of control | [1] 93 % of control

CC[N+](CC)(CC)CCOc1cccc(OCC[N+](CC)(CC)CC)c1OCC[N+](CC)(CC)CC
inactive: [6] 95 % of control | [7] 98 % of control

O=c1[nH]nnc2c1ncn2C1OC(CO)C(O)C1O (stereo not drawn)
inactive: dose: 100.0 mg/kg/injection, schedule: Q01DX005 (ip), vehicle: saline 102 % of control | dose: 200.0 mg/kg/injection, schedule: Q01DX005 (ip), vehicle: saline 102 % of control

O=C(Nc1cccc2ccccc12)Oc1ccccc1Cc1ccccc1
inactive: [3] 93 % of control | [4] 93 % of control | [5] 96 % of control

CCOC(=O)N\C(N)=N/N=C(C)\C=N\N=C(/N)NC(=O)OCC
inactive: dose: 15.0 mg/kg/injection, schedule: Q01DX Z (ip), vehicle: carboxymethylcellulose (CMC) 95 % of control | dose: 30.0 mg/kg/injection, schedule: Q01DX Z (ip), vehicle: carboxymethylcellulose (CMC) 101 % of control | dose: 60.0 mg/kg/injection, schedule: Q01DX Z (ip), vehicle: carboxymethylcellulose (CMC) 106 % of control | dose: 120.0 mg/kg/injection, schedule: Q01DX Z (ip), vehicle: carboxymethylcellulose (CMC) 97 % of control

COc1ccc(/C=C(\C(=O)O)c2cccc3ccccc23)cc1
inactive: dose: 100.0 mg/kg/injection, schedule: Q01DX009 (ip), vehicle: Klucel (hydroxypropylcellulose) (HPC) 91 % of control | dose: 100.0 mg/kg/injection, schedule: Q04DX002 (ip), vehicle: Klucel (hydroxypropylcellulose) (HPC) 100 % of control | dose: 200.0 mg/kg/injection, schedule: Q01DX009 (ip), vehicle: Klucel (hydroxypropylcellulose) (HPC) 107 % of control | dose: 200.0 mg/kg/injection, schedule: Q04DX002 (ip), vehicle: Klucel (hydroxypropylcellulose) (HPC) 86 % of control | dose: 400.0 mg/kg/injection, schedule: Q04DX002 (ip), vehicle: Klucel (hydroxypropylcellulose) (HPC) 104 % of control

CN1C=c2c3c(ccc2=C2C=CC4C=C5OCOC5=CC4=C21)OCO3 (stereo not drawn)
inactive: dose: 2.0 mg/kg/injection, schedule: Q01DX015 (ip), vehicle: saline 97 % of control | dose: 4.0 mg/kg/injection, schedule: Q01DX015 (ip), vehicle: saline 91 % of control | [6] 96 % of control | dose: 6.25 mg/kg/injection, schedule: Q04DX003 (ip), vehicle: saline 92 % of control | dose: 7.5 mg/kg/injection, schedule: Q01DX009 (ip), vehicle: saline 97 % of control | dose: 8.0 mg/kg/injection, schedule: Q01DX015 (ip), vehicle: saline 92 % of control | [7] 96 % of control | dose: 12.5 mg/kg/injection, schedule: Q04DX003 (ip), vehicle: saline 88 % of control | dose: 15.0 mg/kg/injection, schedule: Q01DX009 (ip), vehicle: saline 100 % of control | dose: 16.0 mg/kg/injection, schedule: Q01DX015 (ip), vehicle: saline 100 % of control | dose: 20.0 mg/kg/injection, schedule: Q01DX001 (ip), vehicle: saline 94 % of control | dose: 25.0 mg/kg/injection, schedule: Q04DX003 (ip), vehicle: saline 95 % of control and 90 % of control | dose: 30.0 mg/kg/injection, schedule: Q01DX009 (ip), vehicle: saline 102 % of control

COc1cc(Cc2c(C=O)[nH]c(=S)[nH]c2=O)cc(OC)c1OC
inactive: dose: 100.0 mg/kg/injection, schedule: Q01DX001 (ip), vehicle: saline with Tween-80 90 % of control | dose: 200.0 mg/kg/injection, schedule: Q01DX001 (ip), vehicle: saline with Tween-80 89 % of control | dose: 400.0 mg/kg/injection, schedule: Q01DX001 (ip), vehicle: saline with Tween-80 96 % of control

O=C1c2ccccc2-c2cc(Br)c(N=C(NO)C(F)(F)F)cc21
inactive: dose: 100.0 mg/kg/injection, schedule: Q01DX001 (ip), vehicle: carboxymethylcellulose (CMC) 115 % of control | dose: 200.0 mg/kg/injection, schedule: Q01DX001 (ip), vehicle: carboxymethylcellulose (CMC) 105 % of control | dose: 400.0 mg/kg/injection, schedule: Q01DX001 (ip), vehicle: carboxymethylcellulose (CMC) 108 % of control
